Assay results taken from PubChem BioAssay AID2060497 (Molecular Pharmacology Branch, DTP, NCI, 2025).
pIC50: −log10 of the molar value.

Test system: 317291-083-R-J1-PDC complex spheroids, viability
Assay: Anticancer human tumor 317291-083-R-J1-PDC patient-derived soft tissue sarcoma cell line growth inhibition [GQUAD]
Conditions: for pIC50: curve of first compound; for viability, T/C: stronger effect = lower value
Procedure, shortened: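 Tumor cells were grown as complex spheroids with HUVEC endothelial cells and mesenchymal stem cells as stroma. G-quadruplex stabilizers were combined with targeted agents over half-log dilutions from near the clinical Cmax, or from 10 microM.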

[1] = second compound 0.0316 µM, first compound 0.0316 µM
[2] = second compound 0.0316 µM, first compound 0.1 µM
[3] = second compound 0.0316 µM, first compound 0.316 µM
[4] = second compound 0.0316 µM, first compound 1 µM
[5] = second compound 0.0316 µM, first compound 3.16 µM
[6] = second compound 0.0316 µM, first compound 10 µM
[7] = second compound 0.1 µM, first compound 0.0316 µM
[8] = second compound 0.1 µM, first compound 0.1 µM
[9] = second compound 0.1 µM, first compound 0.316 µM
[10] = second compound 0.1 µM, first compound 1 µM
[11] = second compound 0.1 µM, first compound 3.16 µM
[12] = second compound 0.1 µM, first compound 10 µM
[13] = second compound 0.316 µM, first compound 0.0316 µM
[14] = second compound 0.316 µM, first compound 0.1 µM
[15] = second compound 0.316 µM, first compound 0.316 µM
[16] = second compound 0.316 µM, first compound 1 µM
[17] = second compound 0.316 µM, first compound 3.16 µM
[18] = second compound 0.316 µM, first compound 10 µM
[19] = second compound 1 µM, first compound 0.0316 µM
[20] = second compound 1 µM, first compound 0.1 µM
[21] = second compound 1 µM, first compound 0.316 µM
[22] = second compound 1 µM, first compound 1 µM
[23] = second compound 1 µM, first compound 3.16 µM
[24] = second compound 1 µM, first compound 10 µM
[25] = second compound 3.16 µM, first compound 0.0316 µM
[26] = second compound 3.16 µM, first compound 0.1 µM
[27] = second compound 3.16 µM, first compound 0.316 µM
[28] = second compound 3.16 µM, first compound 1 µM
[29] = second compound 3.16 µM, first compound 3.16 µM
[30] = second compound 3.16 µM, first compound 10 µM
[31] = second compound 10 µM, first compound 0.0316 µM
[32] = second compound 10 µM, first compound 0.1 µM
[33] = second compound 10 µM, first compound 0.316 µM
[34] = second compound 10 µM, first compound 1 µM
[35] = second compound 10 µM, first compound 3.16 µM
[36] = second compound 10 µM, first compound 10 µM
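Also: spheroids exposed to compounds for one week before readout.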
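For viability, T/C in this document: percent viability relative to DMSO vehicle wells taken as 100%.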

For `CC1COCCN1c1cc(C2(S(C)(=N)=O)CC2)nc(-c2ccnc3[nH]ccc23)n1` (stereo not drawn) + CN(C)c1ccc(Nc2c3ccc(NC(=O)CCN4CCCC4)cc3nc3cc(NC(=O)CCN4CCCC4)ccc23)cc1, the pIC50 (second compound 0.0316 µM) was 6.02, the pIC50 (second compound 0.1 µM) was 5.94 and the pIC50 (second compound 0.316 µM) was 6.36. For the same compound, the pIC50 (second compound 1 µM) was 7.11, the pIC50 (second compound 3.16 µM) was greater than 7.50 and the pIC50 (second compound 10 µM) was greater than 7.50. For the same compound, the viability, T/C [1] was 123%, the viability, T/C [2] was 111% and the viability, T/C [3] was 81.6%. The viability, T/C [4] was 49.3%, the viability, T/C [5] was 25.8% and the viability, T/C [6] was 15.9%. The viability, T/C [7] was 141%, the viability, T/C [8] was 105% and the viability, T/C [9] was 82.6%. For the same compound, the viability, T/C [10] was 54.6%, the viability, T/C [11] was 22.2% and the viability, T/C [12] was 17.1%. For the same compound, the viability, T/C [13] was 84.9%, the viability, T/C [14] was 79.9% and the viability, T/C [15] was 55.7%. It also gave a viability, T/C [16] of 32%, a viability, T/C [17] of 21.6% and a viability, T/C [18] of 16.8%. The viability, T/C [19] was 56.6%, the viability, T/C [20] was 44.1% and the viability, T/C [21] was 41.9%. It also gave a viability, T/C [22] of 18.3%, a viability, T/C [23] of 15.2% and a viability, T/C [24] of 7.51%. It also gave a viability, T/C [25] of 38%, a viability, T/C [26] of 24.3% and a viability, T/C [27] of 37.5%. It also gave a viability, T/C [28] of 12.3%, a viability, T/C [29] of 8.02% and a viability, T/C [30] of 7.55%. For the same compound, the viability, T/C [31] was 3.33%, the viability, T/C [32] was 5.73% and the viability, T/C [33] was 7.2%. It also gave a viability, T/C [34] of 6.92%, a viability, T/C [35] of 3.25% and a viability, T/C [36] of 1.68%.
Work on `C#Cc1c(F)ccc2cc(O)cc(-c3ncc4c(N5CC6CCC(C5)N6)nc(OCC56CCCN5CC(F)C6)nc4c3F)c12` (stereo not drawn) + Cc1[nH]c2ccc(F)cc2c1-c1nc2c3cccnc3c3ncccc3c2[nH]1 yielded a pIC50 (second compound 0.0316 µM) of 5.20, a pIC50 (second compound 0.1 µM) of 5.25 and a pIC50 (second compound 0.316 µM) of 5.34. For the same compound, the pIC50 (second compound 1 µM) was 5.48, the pIC50 (second compound 3.16 µM) was greater than 7.50 and the pIC50 (second compound 10 µM) was 5.87. It also gave a viability, T/C [1] of 109%, a viability, T/C [2] of 92.8% and a viability, T/C [3] of 97.8%. It also gave a viability, T/C [4] of 99%, a viability, T/C [5] of 82.2% and a viability, T/C [6] of 28.6%. For the same compound, the viability, T/C [7] was 90.9%, the viability, T/C [8] was 106% and the viability, T/C [9] was 94.9%. The viability, T/C [10] was 108%, the viability, T/C [11] was 75.6% and the viability, T/C [12] was 23.9%. The viability, T/C [13] was 80.3%, the viability, T/C [14] was 58.9% and the viability, T/C [15] was 79.3%. It also gave a viability, T/C [16] of 59.2%, a viability, T/C [17] of 72.5% and a viability, T/C [18] of 6%. The viability, T/C [19] was 66.5%, the viability, T/C [20] was 52.8% and the viability, T/C [21] was 64.2%. For the same compound, the viability, T/C [22] was 54.2%, the viability, T/C [23] was 52.5% and the viability, T/C [24] was 3%. For the same compound, the viability, T/C [25] was 46.6%, the viability, T/C [26] was 36.7% and the viability, T/C [27] was 35.3%. For the same compound, the viability, T/C [28] was 33.7%, the viability, T/C [29] was 35.2% and the viability, T/C [30] was 0.12%. For the same compound, the viability, T/C [31] was 47.8%, the viability, T/C [32] was 60.2% and the viability, T/C [33] was 55.2%. The viability, T/C [34] was 52.9%, the viability, T/C [35] was 42% and the viability, T/C [36] was 0.16%.
In the case of `C#Cc1c(F)ccc2cc(O)cc(-c3ncc4c(N5CC6CCC(C5)N6)nc(OCC56CCCN5CC(F)C6)nc4c3F)c12` (stereo not drawn) + Cc1cnc(CNC(=O)c2c(=O)c3ccc(N4CCCN(C)CC4)nc3n3c2sc2ccccc23)cn1, the pIC50 (second compound 0.0316 µM) was less than 5.00, the pIC50 (second compound 0.1 µM) was less than 5.00 and the pIC50 (second compound 0.316 µM) was greater than 7.50. The pIC50 (second compound 1 µM) was greater than 7.50, the pIC50 (second compound 3.16 µM) was greater than 7.50 and the pIC50 (second compound 10 µM) was greater than 7.50. The viability, T/C [1] was 107%, the viability, T/C [2] was 104% and the viability, T/C [3] was 99.9%. For the same compound, the viability, T/C [4] was 105%, the viability, T/C [5] was 90.6% and the viability, T/C [6] was 66.5%. It also gave a viability, T/C [7] of 89%, a viability, T/C [8] of 74.4% and a viability, T/C [9] of 57.7%. For the same compound, the viability, T/C [10] was 87.2%, the viability, T/C [11] was 76% and the viability, T/C [12] was 80.9%. For the same compound, the viability, T/C [13] was 45.3%, the viability, T/C [14] was 52.1% and the viability, T/C [15] was 53.3%. It also gave a viability, T/C [16] of 36.7%, a viability, T/C [17] of 51.7% and a viability, T/C [18] of 51.8%. It also gave a viability, T/C [19] of 31.4%, a viability, T/C [20] of 36.5% and a viability, T/C [21] of 38.9%. It also gave a viability, T/C [22] of 24.8%, a viability, T/C [23] of 27.4% and a viability, T/C [24] of 21%. For the same compound, the viability, T/C [25] was 14.7%, the viability, T/C [26] was 18.3% and the viability, T/C [27] was 31.5%. It also gave a viability, T/C [28] of 14.1%, a viability, T/C [29] of 22.6% and a viability, T/C [30] of 19.1%. The viability, T/C [31] was 38.2%, the viability, T/C [32] was 22.9% and the viability, T/C [33] was 10.5%. The viability, T/C [34] was 13.7%, the viability, T/C [35] was 11.1% and the viability, T/C [36] was 3.98%.
`COc1cc(C2c3cc4c(cc3C(OC3OC5COC(C)OC5C(O)C3O)C3COC(=O)C23)OCO4)cc(OC)c1O` (stereo not drawn) + Cc1[nH]c2ccc(F)cc2c1-c1nc2c3cccnc3c3ncccc3c2[nH]1 showed a pIC50 (second compound 0.0316 µM) of 6.36, a pIC50 (second compound 0.1 µM) of 6.56 and a pIC50 (second compound 0.316 µM) of 6.59. It also gave a pIC50 (second compound 1 µM) of 6.59, a pIC50 (second compound 3.16 µM) of 6.72 and a pIC50 (second compound 10 µM) of 6.65. For the same compound, the viability, T/C [1] was 103%, the viability, T/C [2] was 93% and the viability, T/C [3] was 59.5%. For the same compound, the viability, T/C [4] was 25.2%, the viability, T/C [5] was 17.9% and the viability, T/C [6] was 16.5%. For the same compound, the viability, T/C [7] was 96.2%, the viability, T/C [8] was 102% and the viability, T/C [9] was 43.5%. The viability, T/C [10] was 28.3%, the viability, T/C [11] was 17.6% and the viability, T/C [12] was 9.83%. For the same compound, the viability, T/C [13] was 113%, the viability, T/C [14] was 92.7% and the viability, T/C [15] was 40.6%. The viability, T/C [16] was 22.5%, the viability, T/C [17] was 14.5% and the viability, T/C [18] was 18.4%. The viability, T/C [19] was 84.7%, the viability, T/C [20] was 94.5% and the viability, T/C [21] was 41.8%. It also gave a viability, T/C [22] of 20.2%, a viability, T/C [23] of 13.6% and a viability, T/C [24] of 13.2%. For the same compound, the viability, T/C [25] was 80.8%, the viability, T/C [26] was 70% and the viability, T/C [27] was 34.5%. It also gave a viability, T/C [28] of 16.7%, a viability, T/C [29] of 16.1% and a viability, T/C [30] of 10%. The viability, T/C [31] was 73.1%, the viability, T/C [32] was 57.6% and the viability, T/C [33] was 47.7%. The viability, T/C [34] was 17.7%, the viability, T/C [35] was 11.9% and the viability, T/C [36] was 16.9%.
